Reference: ChEMBL document CHEMBL3351812, “Discovery and SAR of a novel series of metabotropic glutamate receptor 5 positive allosteric modulators with high ligand efficiency” (Bioorg Med Chem Lett, 2014)
Calls of active or inactive are those of the source. The rule behind the calls is not given here.

Assays:
[1] = target: Metabotropic glutamate receptor 5 (Rattus norvegicus) (UniProt P31424); assay: Positive allosteric modulation of rat mGlu5 receptor expressed in HEK293 cells relative to glutamate; type: cell-based; set-up: concentration or dose not given beside the values
[2] = target: Metabotropic glutamate receptor 5 (Rattus norvegicus, UniProt P31424); assay: (§1) Positive allosteric modulation of rat mGlu5 receptor expressed in HEK293 cells; type: cell-based
[3] = target: Metabotropic glutamate receptor 5 (Rattus norvegicus) (UniProt P31424); assay: as §1; type: cell-based
[4] = (§2) Fraction unbound in human plasma; type: ADME, cell-free
[5] = (§3) Fraction unbound in rat plasma; type: ADME, cell-free
[6] = test system: Plasma; assay: as §2; type: ADME, cell-free
[7] = test system: Plasma; assay: as §3; type: ADME, cell-free
[8] = target: T1, Cytochrome P450 1A2 (Homo sapiens, UniProt P05177); assay: Inhibition of CYP1A2 (unknown origin); type: ADME
T1 sequence (P05177 whole entry): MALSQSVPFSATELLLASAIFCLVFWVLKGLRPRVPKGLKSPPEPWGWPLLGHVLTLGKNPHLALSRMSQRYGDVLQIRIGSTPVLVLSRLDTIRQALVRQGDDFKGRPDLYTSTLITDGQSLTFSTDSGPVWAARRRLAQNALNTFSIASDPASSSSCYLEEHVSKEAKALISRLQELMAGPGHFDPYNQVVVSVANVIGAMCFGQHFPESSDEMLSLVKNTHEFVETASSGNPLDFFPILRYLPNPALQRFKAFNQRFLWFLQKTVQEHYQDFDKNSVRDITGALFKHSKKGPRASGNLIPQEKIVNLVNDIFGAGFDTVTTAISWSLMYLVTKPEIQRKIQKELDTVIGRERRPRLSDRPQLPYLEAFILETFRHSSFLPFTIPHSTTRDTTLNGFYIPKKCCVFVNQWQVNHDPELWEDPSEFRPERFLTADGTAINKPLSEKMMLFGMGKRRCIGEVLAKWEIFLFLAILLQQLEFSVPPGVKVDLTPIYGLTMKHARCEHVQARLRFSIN

[9] = target: Metabotropic glutamate receptor 3 (Homo sapiens) (UniProt Q14832); assay: Positive allosteric modulation of human mGlu3 receptor
[10] = target: Metabotropic glutamate receptor 7 (Homo sapiens) (UniProt Q14831); assay: Positive allosteric modulation of human mGlu7 receptor
[11] = test system: Plasma; assay: Stability in human plasma at 37 degC after 4 hrs; type: ADME, cell-free
[12] = target: Cytochrome P450 2C9 (Homo sapiens, UniProt P11712); assay: Inhibition of CYP2C9 (unknown origin); type: ADME
[13] = target: Metabotropic glutamate receptor 7 (Rattus norvegicus) (UniProt P35400); assay: Positive allosteric modulation of rat mGlu7 receptor
[14] = target: Cytochrome P450 3A4 (Homo sapiens, UniProt P08684); assay: Inhibition of CYP3A4 (unknown origin); type: ADME
[15] = target: Metabotropic glutamate receptor 1 (Rattus norvegicus) (UniProt P23385); assay: Positive allosteric modulation of rat mGlu1 receptor
[16] = target: Metabotropic glutamate receptor 3 (Rattus norvegicus) (UniProt P31422); assay: Positive allosteric modulation of rat mGlu3 receptor
[17] = target: Metabotropic glutamate receptor 2 (Homo sapiens) (UniProt Q14416); assay: Positive allosteric modulation of human mGlu2 receptor
[18] = target: Metabotropic glutamate receptor 1 (Homo sapiens) (UniProt Q13255); assay: Positive allosteric modulation of human mGlu1 receptor
[19] = test system: Plasma; assay: Stability in rat plasma at 37 degC after 4 hrs; type: ADME, cell-free
[20] = target: Cytochrome P450 2D6 (Homo sapiens, UniProt P10635); assay: Inhibition of CYP2D6 (unknown origin); type: ADME
[21] = target: Metabotropic glutamate receptor 2 (Rattus norvegicus) (UniProt P31421); assay: Positive allosteric modulation of rat mGlu2 receptor
[22] = target: Metabotropic glutamate receptor 8 (Rattus norvegicus) (UniProt P70579); assay: Positive allosteric modulation of rat mGlu8 receptor
[23] = target: Metabotropic glutamate receptor 6 (Rattus norvegicus) (UniProt P35349); assay: Positive allosteric modulation of rat mGlu6 receptor
[24] = target: Metabotropic glutamate receptor 8 (Homo sapiens) (UniProt O00222); assay: Positive allosteric modulation of human mGlu8 receptor
[25] = target: Metabotropic glutamate receptor 6 (Homo sapiens) (UniProt O15303); assay: Positive allosteric modulation of human mGlu6 receptor
Metabotropic glutamate receptor 6 (Homo sapiens), sequence (O15303 whole entry): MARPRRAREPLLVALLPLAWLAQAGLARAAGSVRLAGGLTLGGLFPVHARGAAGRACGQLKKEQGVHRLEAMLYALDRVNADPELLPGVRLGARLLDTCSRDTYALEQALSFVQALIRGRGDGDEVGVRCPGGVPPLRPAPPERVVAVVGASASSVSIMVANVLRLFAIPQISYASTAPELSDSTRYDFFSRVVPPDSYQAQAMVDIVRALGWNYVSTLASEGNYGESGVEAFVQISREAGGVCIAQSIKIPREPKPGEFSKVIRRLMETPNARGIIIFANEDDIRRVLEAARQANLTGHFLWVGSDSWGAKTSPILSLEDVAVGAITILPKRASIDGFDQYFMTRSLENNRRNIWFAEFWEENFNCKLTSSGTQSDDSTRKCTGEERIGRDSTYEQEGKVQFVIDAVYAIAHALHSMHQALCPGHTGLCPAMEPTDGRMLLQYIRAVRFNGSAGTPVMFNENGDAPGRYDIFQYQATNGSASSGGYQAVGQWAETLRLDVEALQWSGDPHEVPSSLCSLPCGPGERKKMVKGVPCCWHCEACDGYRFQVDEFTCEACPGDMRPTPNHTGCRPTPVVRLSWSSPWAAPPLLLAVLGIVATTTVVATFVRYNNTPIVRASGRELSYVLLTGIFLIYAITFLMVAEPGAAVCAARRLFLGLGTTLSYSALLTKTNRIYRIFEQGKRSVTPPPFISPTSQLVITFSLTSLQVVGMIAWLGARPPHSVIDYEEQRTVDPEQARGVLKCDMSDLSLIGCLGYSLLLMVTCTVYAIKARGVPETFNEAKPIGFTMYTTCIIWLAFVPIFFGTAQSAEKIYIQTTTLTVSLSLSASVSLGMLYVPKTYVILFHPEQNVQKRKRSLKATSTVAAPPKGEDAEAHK

Metabotropic glutamate receptor 5, sequence (P31424 whole entry): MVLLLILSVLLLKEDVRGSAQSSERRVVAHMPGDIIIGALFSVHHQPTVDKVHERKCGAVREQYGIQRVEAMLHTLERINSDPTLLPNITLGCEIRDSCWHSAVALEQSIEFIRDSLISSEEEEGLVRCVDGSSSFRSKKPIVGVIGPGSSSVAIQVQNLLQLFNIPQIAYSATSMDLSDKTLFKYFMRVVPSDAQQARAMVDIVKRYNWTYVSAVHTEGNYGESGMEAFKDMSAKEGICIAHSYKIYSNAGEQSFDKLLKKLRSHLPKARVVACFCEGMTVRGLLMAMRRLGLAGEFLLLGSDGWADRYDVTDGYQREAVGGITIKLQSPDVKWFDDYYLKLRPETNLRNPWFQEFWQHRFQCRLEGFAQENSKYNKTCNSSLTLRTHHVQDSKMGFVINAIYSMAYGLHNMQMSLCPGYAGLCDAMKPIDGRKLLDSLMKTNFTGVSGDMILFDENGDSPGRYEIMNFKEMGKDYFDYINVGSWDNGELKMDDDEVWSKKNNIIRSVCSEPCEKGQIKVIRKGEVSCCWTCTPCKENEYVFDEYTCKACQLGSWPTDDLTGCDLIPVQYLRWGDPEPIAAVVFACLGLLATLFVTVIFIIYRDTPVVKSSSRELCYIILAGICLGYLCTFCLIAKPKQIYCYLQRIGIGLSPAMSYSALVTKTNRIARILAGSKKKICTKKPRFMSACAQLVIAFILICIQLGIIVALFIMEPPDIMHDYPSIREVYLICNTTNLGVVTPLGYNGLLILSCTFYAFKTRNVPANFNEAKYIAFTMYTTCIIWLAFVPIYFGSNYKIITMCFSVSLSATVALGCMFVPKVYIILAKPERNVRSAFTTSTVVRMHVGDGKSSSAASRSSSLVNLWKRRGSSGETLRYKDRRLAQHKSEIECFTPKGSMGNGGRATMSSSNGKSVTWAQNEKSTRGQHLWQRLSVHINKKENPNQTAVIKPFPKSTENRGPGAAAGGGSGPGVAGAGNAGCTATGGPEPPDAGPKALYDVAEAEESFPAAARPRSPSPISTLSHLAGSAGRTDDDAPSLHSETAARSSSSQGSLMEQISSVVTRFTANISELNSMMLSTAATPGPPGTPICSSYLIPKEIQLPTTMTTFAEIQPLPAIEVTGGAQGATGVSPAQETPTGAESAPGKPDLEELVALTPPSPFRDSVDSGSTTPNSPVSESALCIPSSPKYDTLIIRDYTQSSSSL
Metabotropic glutamate receptor 5 (Rattus norvegicus), sequence (P31424 21-1203 limits assumed): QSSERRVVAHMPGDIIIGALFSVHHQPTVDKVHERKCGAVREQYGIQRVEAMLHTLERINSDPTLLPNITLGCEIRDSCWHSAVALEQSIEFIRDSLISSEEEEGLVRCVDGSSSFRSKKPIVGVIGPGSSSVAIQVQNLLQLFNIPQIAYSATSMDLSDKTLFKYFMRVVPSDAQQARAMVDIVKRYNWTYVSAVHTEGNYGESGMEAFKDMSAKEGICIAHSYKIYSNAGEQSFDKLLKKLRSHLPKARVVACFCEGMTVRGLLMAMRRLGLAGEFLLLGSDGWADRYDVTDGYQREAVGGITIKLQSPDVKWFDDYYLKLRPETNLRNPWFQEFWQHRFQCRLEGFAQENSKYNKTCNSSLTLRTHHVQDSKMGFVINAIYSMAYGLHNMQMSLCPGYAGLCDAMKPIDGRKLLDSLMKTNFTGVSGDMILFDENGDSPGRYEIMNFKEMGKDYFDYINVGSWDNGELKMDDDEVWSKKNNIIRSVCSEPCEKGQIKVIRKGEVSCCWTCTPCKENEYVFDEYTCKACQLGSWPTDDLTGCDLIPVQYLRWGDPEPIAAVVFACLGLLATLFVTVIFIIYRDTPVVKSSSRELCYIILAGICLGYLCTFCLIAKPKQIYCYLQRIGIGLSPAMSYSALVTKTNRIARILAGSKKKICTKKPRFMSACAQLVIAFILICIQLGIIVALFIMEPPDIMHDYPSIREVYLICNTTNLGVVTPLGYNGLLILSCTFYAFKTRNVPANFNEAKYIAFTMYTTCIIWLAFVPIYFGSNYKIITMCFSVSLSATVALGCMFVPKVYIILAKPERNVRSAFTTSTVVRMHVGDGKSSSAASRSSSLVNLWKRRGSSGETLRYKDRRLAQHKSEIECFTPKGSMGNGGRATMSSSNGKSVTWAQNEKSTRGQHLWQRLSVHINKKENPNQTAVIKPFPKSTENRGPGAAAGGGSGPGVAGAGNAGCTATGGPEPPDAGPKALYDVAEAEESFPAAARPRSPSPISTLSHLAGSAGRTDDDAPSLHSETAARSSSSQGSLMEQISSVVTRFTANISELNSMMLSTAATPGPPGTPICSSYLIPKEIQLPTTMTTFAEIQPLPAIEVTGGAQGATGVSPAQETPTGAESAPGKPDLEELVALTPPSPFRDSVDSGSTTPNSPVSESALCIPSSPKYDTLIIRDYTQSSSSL
Metabotropic glutamate receptor 6 (Rattus norvegicus), sequence (P35349 whole entry): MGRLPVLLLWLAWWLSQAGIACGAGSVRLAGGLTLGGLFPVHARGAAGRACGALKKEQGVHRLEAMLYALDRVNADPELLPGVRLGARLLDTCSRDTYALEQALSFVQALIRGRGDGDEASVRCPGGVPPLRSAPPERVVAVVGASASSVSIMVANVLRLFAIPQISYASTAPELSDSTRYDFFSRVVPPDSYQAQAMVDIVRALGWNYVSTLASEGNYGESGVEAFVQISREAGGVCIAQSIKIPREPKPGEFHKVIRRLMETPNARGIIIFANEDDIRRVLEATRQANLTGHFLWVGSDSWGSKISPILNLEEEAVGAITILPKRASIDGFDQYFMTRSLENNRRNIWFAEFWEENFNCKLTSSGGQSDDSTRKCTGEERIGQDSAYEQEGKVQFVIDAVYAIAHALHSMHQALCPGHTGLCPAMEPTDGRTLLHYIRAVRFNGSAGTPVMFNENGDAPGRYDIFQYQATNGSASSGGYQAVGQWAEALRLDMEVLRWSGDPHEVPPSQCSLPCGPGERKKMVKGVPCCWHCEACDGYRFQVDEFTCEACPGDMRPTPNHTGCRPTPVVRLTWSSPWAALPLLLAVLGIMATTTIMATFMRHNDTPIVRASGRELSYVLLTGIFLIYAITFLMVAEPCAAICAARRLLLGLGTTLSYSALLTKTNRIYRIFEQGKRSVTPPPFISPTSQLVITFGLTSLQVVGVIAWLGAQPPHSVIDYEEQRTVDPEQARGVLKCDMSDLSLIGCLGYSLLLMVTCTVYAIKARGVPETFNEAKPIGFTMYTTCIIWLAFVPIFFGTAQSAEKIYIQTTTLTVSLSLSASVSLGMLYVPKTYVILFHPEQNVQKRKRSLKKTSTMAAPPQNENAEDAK
Metabotropic glutamate receptor 2 (Rattus norvegicus), sequence (P31421 19-872 limits assumed): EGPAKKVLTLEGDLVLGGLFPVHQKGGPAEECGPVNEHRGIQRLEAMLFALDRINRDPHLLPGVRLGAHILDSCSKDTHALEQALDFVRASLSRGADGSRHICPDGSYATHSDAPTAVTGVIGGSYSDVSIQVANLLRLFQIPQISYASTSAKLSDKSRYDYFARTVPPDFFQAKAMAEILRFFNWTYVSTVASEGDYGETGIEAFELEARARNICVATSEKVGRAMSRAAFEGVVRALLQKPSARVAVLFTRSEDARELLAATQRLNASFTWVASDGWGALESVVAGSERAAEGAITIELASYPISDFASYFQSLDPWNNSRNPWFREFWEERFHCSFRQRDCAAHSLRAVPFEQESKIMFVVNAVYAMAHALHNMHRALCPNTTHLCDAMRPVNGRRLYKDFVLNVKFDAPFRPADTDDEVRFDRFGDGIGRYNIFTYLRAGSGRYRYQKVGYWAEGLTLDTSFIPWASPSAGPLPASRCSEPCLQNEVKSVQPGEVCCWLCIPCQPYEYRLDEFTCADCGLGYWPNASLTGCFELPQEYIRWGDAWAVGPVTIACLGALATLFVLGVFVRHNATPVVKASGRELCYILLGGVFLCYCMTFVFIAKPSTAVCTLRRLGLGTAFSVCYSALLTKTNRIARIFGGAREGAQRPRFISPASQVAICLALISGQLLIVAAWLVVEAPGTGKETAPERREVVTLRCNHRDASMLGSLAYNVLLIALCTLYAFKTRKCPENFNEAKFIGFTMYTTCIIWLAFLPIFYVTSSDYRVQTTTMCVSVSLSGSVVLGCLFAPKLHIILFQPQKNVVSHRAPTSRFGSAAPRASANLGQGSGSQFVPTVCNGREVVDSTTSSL

Row | Compound | Activity [1] [%] | EC50 [2] [nM] | also measured
1 | CC1CCn2nc(COc3ccccc3)cc2C1=O (stereo not drawn) | 76 | 285 | 
2 | NC1CCCn2nc(COc3ccccc3)cc21 (stereo not drawn) | 45 | > 10000 | 
3 | Fc1cccc(CNC2CCCn3nc(COc4ccccc4)cc32)c1 (stereo not drawn) | 75 | 275 | 
4 | COc1ccc(CNC2CCCn3nc(COc4ccccc4)cc32)cc1 (stereo not drawn) | 60 | 290 | 
5 | O=C1c2cc(COc3ccccc3)nn2CCC1(Cc1ccccc1)Cc1ccccc1 | 37 | > 10000 | 
6 | c1ccc(OCc2cc3n(n2)CCCC3OCC2CC2)cc1 (stereo not drawn) | 43 | 2520 | 
7 | c1ccc(NC2CCCn3nc(COc4ccccc4)cc32)cc1 (stereo not drawn) | 62 | 269 | 
8 | COC1c2cc(COc3ccccc3)nn2CCC1(C)C (stereo not drawn) | 75 | 796 | 
9 | O=C1CCCn2nc(OCc3ccccc3)cc21 |  |  | Activity [3]: inactive
10 | CC1(C)CCn2nc(COc3ccccc3)cc2C1O (stereo not drawn) | 60 | 4410 | 
11 | c1ccc(OCc2cc3n(n2)CCCC3NCc2cccnc2)cc1 (stereo not drawn) | 59 | 2840 | 
12 | Fc1ccc(CNC2CCCn3nc(COc4ccccc4)cc32)cc1 (stereo not drawn) | 69 | 316 | 
13 | OC1(C(F)(F)F)CCCn2nc(COc3ccccc3)cc21 (stereo not drawn) | 54 | 3780 | 
14 | O=C1CCCc2nc(COc3ccccc3)sc21 | 65 | 441 | 
15 | CC(C)N1CCN(C2CCCn3nc(COc4ccccc4)cc32)CC1 (stereo not drawn) | 71 | 870 | 
16 | O=C1c2cc(COc3ccccc3)nn2CCC1c1ccc(F)cc1 (stereo not drawn) | 66 | 35 | fraction unbound [4]: 0.008; fraction unbound [5]: 0.032
17 | CN(Cc1ccccc1)C1CCCn2nc(COc3ccccc3)cc21 (stereo not drawn) | 71 | 686 | 
18 | CC1(C)CCn2nc(COc3ccccc3)cc2C1NCc1ccccc1 (stereo not drawn) | 65 | 3620 | 
19 | c1ccc(CNC2CCCn3nc(COc4ccccc4)cc32)cc1 (stereo not drawn) | 74 | 632 | Fu [6]: 0.02%; Fu [7]: 0.03%
20 | OC1CCCn2nc(COc3ccccc3)cc21 (stereo not drawn) | 47 | 2010 | 
21 | CC1(C)CCn2nc(COc3ccccc3)cc2C1=O | 70 | 86 | IC50 [8]: 7300 nM; fraction unbound [4]: 0.1; fraction unbound [5]: 0.07

Row | Compound | Activity [1] [%] | EC50 [2] [nM] | also measured
22 | O=C1c2cc(COc3ccccc3)nn2CCC1Cc1ccccc1 (stereo not drawn) | 73 | 124 | 
23 | CC1(c2ccc(F)cc2)CCn2nc(COc3ccccc3)cc2C1=O (stereo not drawn) | 58 | 228 | 
24 | c1ccc(CNC2CCCn3nc(OCc4ccccc4)cc32)cc1 (stereo not drawn) | 48 | 618 | 
25 | FC1(F)CCCn2nc(COc3ccccc3)cc21 | 52 | 625 | 
26 | COc1ccccc1C1CCn2nc(COc3ccccc3)cc2C1=O (stereo not drawn) | 68 | 43 | 
27 | c1ccc(COC2CCCn3nc(COc4ccccc4)cc32)cc1 (stereo not drawn) | 70 | 989 | 
28 | O=C1CCCn2nc(COc3ccccc3)cc21 | 66 | 129 | Activity [9]: > 10 µM; Activity [10]: > 10 µM; Stability [11]: Stable; IC50 [8]: 6200 nM; inhibition (INH) [12]: Active; Activity [13]: > 10 µM; inhibition (INH) [14]: Active; fraction unbound [4]: 0.23; Activity [15]: > 10 µM; Activity [16]: > 10 µM; fraction unbound [5]: 0.21; Activity [17]: > 10 µM; Activity [18]: > 10 µM; Stability [19]: Stable; inhibition (INH) [20]: Active; Activity [21]: > 10 µM; Activity [22]: > 10 µM; Activity [23]: > 10 µM; Activity [24]: > 10 µM; Activity [25]: > 10 µM
29 | CC1(C)CCn2nc(COc3ccccc3)cc2C1OCc1ccccc1 (stereo not drawn) | 64 | 2320 | 
30 | O=C1c2cc(OCc3ccccc3)nn2CCC1c1ccc(F)cc1 (stereo not drawn) | 48 | 95 | 
31 | COc1ccccc1C1(C)CCn2nc(COc3ccccc3)cc2C1=O (stereo not drawn) | 52 | 654 | 
32 | CCCCC1(O)CCCn2nc(COc3ccccc3)cc21 (stereo not drawn) | 44 | 1820 | 
33 | O=C1c2cc(COc3ccccc3)nn2CCC12CCCC2 | 60 | 48 | 
34 | CC1CCn2nc(COc3ccccc3)cc2C1(C)O (stereo not drawn) | 39 | 1680 | 
35 | Clc1ccc(CNC2CCCn3nc(COc4ccccc4)cc32)cc1 (stereo not drawn) | 65 | 637 | 
36 | c1ccc(OCc2cc3n(n2)CCCC3NCc2ccncc2)cc1 (stereo not drawn) | 68 | 2570 | 
37 | c1ccc(OCc2cc3n(n2)CCCC3NC2CC2)cc1 (stereo not drawn) | 50 | 1800 | 
38 | COC1CCCn2nc(COc3ccccc3)cc21 (stereo not drawn) | 43 | 2910 | 
39 | c1ccc(OCc2cc3n(n2)CCCC3N2CCOCC2)cc1 (stereo not drawn) | 52 | 2360 | 
40 | OC1(c2ccccc2)CCCn2nc(COc3ccccc3)cc21 (stereo not drawn) | 49 | 1200 | 
41 | CC1(C)CCn2nc(OCc3ccccc3)cc2C1=O | 56 | 228 | 
